Reference: ChEMBL document CHEMBL5352406 (Eur J Med Chem, 2022)

Columns and labels:
[1] = target: CDK6/cyclin D3 (Homo sapiens) (UniProt P30281+Q00534); experiment: Inhibition of CDK6/Cyclin D3 (unknown origin) at 500 nM by ADP-Glo kinase assay relative to control; assay type: protein-complex assay
[2] = Half life in Sprague-Dawley rat at 2 mg/kg, iv; assay type: ADME, organism-based; settings: in vivo
[3] = target: CDK18/Cyclin Y (Homo sapiens) (UniProt Q07002+Q8ND76); experiment: Inhibition of CDK18/Cyclin Y (unknown origin) at 500 nM by ADP-Glo kinase assay relative to control; assay type: protein-complex assay
[4] = Acute toxicity in Kunming mouse assessed as survival at 69 mg/kg, po measured for 2 weeks; assay type: organism-based; settings: in vivo
[5] = system: HCT-116; experiment: Antiproliferative activity against human HCT-116 cells assessed as cell growth inhibition after 72 hrs by MTT assay; assay type: functional
[6] = AUC (0 to t) in Sprague-Dawley rat at 20 mg/kg, po; assay type: ADME, organism-based; design: dose 20 mg/kg, route po; settings: in vivo
[7] = system: HCT-116; experiment: Induction of apoptosis in human HCT-116 cells assessed as late apoptotic cells at 20 nM measured after 48 hrs by Annexin V-FITC/PI assay (reference value: 6.06%); assay type: functional
[8] = Toxicity in BALB/cA-nu mouse xenografted with human HCT116 cells assessed as behavioral changes at 10 mg/kg, intragastric administration for 21 days; assay type: organism-based, HCT-116; settings: in vivo, po, 504 h, time 21 day
[9] = Acute toxicity in po dosed Kunming mouse assessed as survival measured for 2 weeks; assay type: organism-based; settings: in vivo
[10] = Tmax in Sprague-Dawley rat at 20 mg/kg, po; assay type: ADME, organism-based; settings: in vivo
[11] = AUC (0 to infinity) in Sprague-Dawley rat at 2 mg/kg, iv; assay type: ADME, organism-based; design: dose 2 mg/kg, route iv; settings: in vivo
[12] = system: HCT-116; experiment: Antitumor activity against human HCT-116 cells xenografted in BALB/cA-nu mouse tumor model assessed as tumor weight growth inhibition at 10 mg/kg, intragastric administration for 21 days relative to control; assay type: functional; settings: HCT-116, 504 h, route ig, time 21 day, read-out: TGI
[13] = system: HCT-116; experiment: Induction of apoptosis in human HCT-116 cells assessed as necrotic cells at 10 nM measured after 48 hrs by Annexin V-FITC/PI assay (reference value: 2.31%); assay type: functional
[14] = system: HCT-116; experiment: Cell cycle arrest in human HCT-116 cells assessed as accumulation of cells at G0-G1 phase at 10 nM measured after 48 hrs by flow cytometry (reference value: 62.18%); assay type: functional
[15] = Acute toxicity in Kunming mouse assessed as behavior change at 20 to 105 mg/kg, po measured for 2 weeks; assay type: organism-based; settings: in vivo, 336 h, dose 20-105 mg/kg
[16] = Acute toxicity in Kunming mouse assessed as survival at 20 mg/kg, po measured for 2 weeks; assay type: organism-based; settings: in vivo
[17] = Toxicity in BALB/cA-nu mouse xenografted with human HCT116 cells assessed as body weight changes at 10 mg/kg, intragastric administration for 21 days; assay type: organism-based, HCT-116; settings: in vivo, po, 504 h, time 21 day
[18] = Toxicity in BALB/cA-nu mouse xenografted with human HCT116 cells assessed as liver injury by measuring AST level at 10 mg/kg, intragastric administration for 21 days; assay type: organism-based, HCT-116; settings: in vivo, po, 504 h, time 21 day
[19] = system: HCT-116; experiment: Induction of apoptosis in human HCT-116 cells assessed as viable cells at 20 nM measured after 48 hrs by Annexin V-FITC/PI assay (reference value: 88.5%); assay type: functional; settings: read-out: Activity
[20] = Cmax in Sprague-Dawley rat at 2 mg/kg, iv; assay type: ADME, organism-based; design: dose 2 mg/kg, route iv; settings: in vivo
[21] = Toxicity in BALB/cA-nu mouse xenografted with human HCT116 cells assessed as liver injury by measuring ALT level at 10 mg/kg, intragastric administration for 21 days; assay type: organism-based, HCT-116; settings: in vivo, po, 504 h, time 21 day
[22] = Cmax in Sprague-Dawley rat at 20 mg/kg, po; assay type: ADME, organism-based; design: dose 20 mg/kg, route po; settings: in vivo
[23] = target: Cyclin-dependent kinase 1/cyclin B1 (Homo sapiens) (UniProt P06493+P14635); settings: dose 500.0 nM
Chain of Cyclin-dependent kinase 1/cyclin B1 (Homo sapiens) (P06493 whole entry, looked up): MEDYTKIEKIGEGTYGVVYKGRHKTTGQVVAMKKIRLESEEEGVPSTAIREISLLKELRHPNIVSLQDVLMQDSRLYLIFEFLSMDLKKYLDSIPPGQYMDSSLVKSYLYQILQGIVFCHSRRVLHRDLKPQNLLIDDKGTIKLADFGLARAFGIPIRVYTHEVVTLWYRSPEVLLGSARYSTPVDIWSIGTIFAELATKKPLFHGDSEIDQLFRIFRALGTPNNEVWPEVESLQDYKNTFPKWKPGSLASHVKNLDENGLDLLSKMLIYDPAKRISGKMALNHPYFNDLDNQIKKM
Chain of Cyclin-dependent kinase 1/cyclin B1 (Homo sapiens) (P14635 whole entry, looked up): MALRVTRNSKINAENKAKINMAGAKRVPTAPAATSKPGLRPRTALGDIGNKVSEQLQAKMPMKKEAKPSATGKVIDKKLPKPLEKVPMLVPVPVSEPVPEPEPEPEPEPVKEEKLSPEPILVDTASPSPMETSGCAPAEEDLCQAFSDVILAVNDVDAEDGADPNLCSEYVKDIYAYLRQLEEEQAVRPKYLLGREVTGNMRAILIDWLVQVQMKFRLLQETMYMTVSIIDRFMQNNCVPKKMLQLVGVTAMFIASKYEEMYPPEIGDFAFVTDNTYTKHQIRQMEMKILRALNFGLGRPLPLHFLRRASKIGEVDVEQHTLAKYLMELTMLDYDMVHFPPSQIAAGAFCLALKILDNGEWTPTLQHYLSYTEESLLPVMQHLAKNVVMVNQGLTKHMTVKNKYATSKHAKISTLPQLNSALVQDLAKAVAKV
Description: Inhibition of CDK1/Cyclin B1 (unknown origin) at 500 nM by ADP-Glo kinase assay relative to control

[24] = system: HCT-116; experiment: Cell cycle arrest in human HCT-116 cells assessed as accumulation of cells at […] phase at 10 nM measured after 48 hrs by flow cytometry (reference value: 6.39%); assay type: functional
[25] = target: CDK9/cyclin T1 (Homo sapiens, UniProt P50750)
Chain of CDK9/cyclin T1 (O60563 whole entry): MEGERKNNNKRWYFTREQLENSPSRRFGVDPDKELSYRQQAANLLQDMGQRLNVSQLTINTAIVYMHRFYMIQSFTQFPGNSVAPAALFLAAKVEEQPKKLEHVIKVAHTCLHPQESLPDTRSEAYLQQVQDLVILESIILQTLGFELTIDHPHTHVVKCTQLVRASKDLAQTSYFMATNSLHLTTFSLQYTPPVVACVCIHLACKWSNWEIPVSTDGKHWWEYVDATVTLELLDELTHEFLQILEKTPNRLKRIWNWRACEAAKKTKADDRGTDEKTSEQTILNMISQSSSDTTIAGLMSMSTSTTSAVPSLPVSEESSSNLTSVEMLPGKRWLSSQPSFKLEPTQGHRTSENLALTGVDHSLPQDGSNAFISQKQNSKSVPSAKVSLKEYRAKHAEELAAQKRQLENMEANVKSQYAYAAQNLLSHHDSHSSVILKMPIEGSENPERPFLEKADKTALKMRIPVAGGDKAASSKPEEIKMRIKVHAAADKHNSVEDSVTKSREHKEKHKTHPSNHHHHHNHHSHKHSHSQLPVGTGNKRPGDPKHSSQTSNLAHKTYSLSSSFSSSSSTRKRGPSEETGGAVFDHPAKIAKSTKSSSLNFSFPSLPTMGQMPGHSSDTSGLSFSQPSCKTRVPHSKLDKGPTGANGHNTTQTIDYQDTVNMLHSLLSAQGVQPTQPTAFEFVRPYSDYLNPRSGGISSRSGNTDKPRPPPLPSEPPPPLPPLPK
Chain of CDK9/cyclin T1 (P50750 whole entry): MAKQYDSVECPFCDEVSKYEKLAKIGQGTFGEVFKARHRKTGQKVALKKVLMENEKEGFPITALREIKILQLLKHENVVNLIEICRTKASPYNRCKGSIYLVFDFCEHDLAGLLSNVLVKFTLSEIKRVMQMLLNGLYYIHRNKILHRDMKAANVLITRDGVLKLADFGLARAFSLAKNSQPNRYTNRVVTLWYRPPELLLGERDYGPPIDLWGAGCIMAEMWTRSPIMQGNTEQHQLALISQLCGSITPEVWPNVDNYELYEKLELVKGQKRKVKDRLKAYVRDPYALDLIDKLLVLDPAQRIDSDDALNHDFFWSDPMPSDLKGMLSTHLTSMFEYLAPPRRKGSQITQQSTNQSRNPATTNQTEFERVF
Description: Inhibition of CDK9/CyclinT1 (unknown origin) by ADP-Glo kinase assay

[26] = Acute toxicity in Kunming mouse assessed as survival at 159 mg/kg, po measured for 2 weeks; assay type: organism-based; settings: in vivo
[27] = system: HCT-116; experiment: Induction of apoptosis in human HCT-116 cells assessed as early apoptotic cells at 20 nM measured after 48 hrs by Annexin V-FITC/PI assay (reference value: 3.16%); assay type: functional

Structure (SMILES): Cl.N[C@H]1CCN(c2c3c(nc4ccc(-c5ccnc(NC(=O)C6CC6)n5)cc24)CCCCC3)C1
- inhibition [1]: 16.6%
- half-life [2]: 27.7 min
- inhibition [3]: 68.1%
- survival at 336 h [4]: 100%
- GI50 [5]: 6 nM
- AUC(0-t) [6]: 302 ng·h/mL
- Activity [7]: 13.6%
- Activity [8]: Non-Toxic
- LD50 at 336 h [9]: 104 mg/kg
- Tmax [10]: 60 min
- AUC(0-inf) [11]: 115 ng·h/mL
- inhibition in vivo at 10 mg/kg [12]: 62.4%
- Activity [13]: 1.48%
- Activity [14]: 46.65%
- Activity [15]: Non-Toxic
- survival at 336 h [16]: 100%
- Activity [17]: Non-Toxic
- Activity [18]: Non-Toxic
- viability at 0.02 µM [19]: 52.5%
- Cmax [20]: 206 ng/mL
- Activity [21]: Non-Toxic
- Cmax [22]: 67.8 ng/mL
- inhibition [23]: 77.3%
- Activity [24]: 10.6%
- IC50 [25]: 2.41 nM
- survival at 336 h [26]: 0%
- Activity [27]: 32.6%
